Reference: patent US20260049092A1, “ANTIBACTERIAL COMPOUNDS” (Blacksmith Medicines, Inc., priority 2022, published 2026)
≈ marks a conversion by molar mass, not a printed value.

Tests used:
Experiment in all cases: Bacterial susceptibility testing (MIC, broth microdilution)
Type in all cases: cell-based
E. coli ATCC25922 = conditions: Escherichia coli, ATCC25922, broth microdilution, cation adjusted Mueller-Hinton Broth, 35° C., 18-24 h; read-out: E. coli ATCC25922 MIC
In short: (§1)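 CLSI broth microdilution was run in cation-adjusted Mueller-Hinton broth with an inoculum of 3×10^5–7×10^5 CFU/mL and 2-fold compound dilutions. Plates were incubated in ambient air at 35° C for 18-24 h. MIC was the lowest concentration preventing visible growth (OD600 nm<0.05).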

K. pneumoniae ATCC13883 = conditions: Klebsiella pneumoniae, ATCC13883, broth microdilution, cation adjusted Mueller-Hinton Broth, 35° C., 18-24 h; read-out: K. pneumoniae ATCC13883 MIC
In short: as §1

P. aeruginosa ATCC27853 = conditions: Pseudomonas aeruginosa, ATCC27853, broth microdilution, cation adjusted Mueller-Hinton Broth, 35° C., 18-24 h; read-out: P. aeruginosa ATCC27853 MIC
In short: as §1

P. aeruginosa PAO1 = conditions: Pseudomonas aeruginosa, PAO1; broth microdilution, cation adjusted Mueller-Hinton Broth, 35° C., 18-24 h; read-out: P. aeruginosa PAO1 MIC
In short: as §1

| Compound | MIC (E. coli ATCC25922) [µg/mL] | MIC (K. pneumoniae ATCC13883) [µg/mL] | MIC (P. aeruginosa ATCC27853) [µg/mL] | MIC (P. aeruginosa PAO1) [µg/mL] |
| --- | --- | --- | --- | --- |
| C[C@H](O)c1nccn1[C@@H](C#Cc1ccc(-c2ccc(O[C@H]3CCOC[C@@H]3O)cc2F)cc1)CO (single isomer, unassigned) [Compound 56] | 1 (≈ 2.14 µM) | 2 (≈ 4.29 µM) | 8 (≈ 17.1 µM) | 2 (≈ 4.29 µM) |
| C[C@H](O)c1nccn1[C@@H](C#Cc1ccc(-c2ccc(N3CC4(COC4)C3)cc2)cc1)CO (single isomer, unassigned) [Compound 75] | 0.25 (≈ 0.582 µM) | 1 (≈ 2.33 µM) | 4 (≈ 9.31 µM) | 2 (≈ 4.66 µM) |
| C[C@H](O)c1nccn1[C@@H](C#Cc1ccc(-c2ccc(C3CC(C)(O)C3)cc2)cc1)CO (stereo partly drawn) [Compound 111, 3-(4′-((S)-4-hydroxy-3-(2-((S)-1-hydroxyethyl)-1H-imidazol-1-yl)but-1-yn-1-yl)-[1,1′-biphenyl]-4-yl)-1-methylcyclobutan-1-ol] | 0.25 (≈ 0.6 µM) | 0.5 (≈ 1.2 µM) | 2 (≈ 4.8 µM) | 1.5 (≈ 3.6 µM) |
| C[C@H](O)c1nccn1[C@@H](C#Cc1ccc(-c2ccc(NC3CC(NCC#N)C3)cc2)cc1)CO (stereo partly drawn) [Compound 68, 2-((3-((4′-((S)-4-hydroxy-3-(2-((S)-1-hydroxyethyl)-1H-imidazol-1-yl)but-1-yn-1-yl)-[1,1′-biphenyl]-4-yl)amino)cyclobutyl)amino) acetonitrile] | 1 (≈ 2.2 µM) | 2 (≈ 4.39 µM) | 4 (≈ 8.78 µM) | 2 (≈ 4.39 µM) |
| C[C@H](O)c1nccn1[C@@H](C#Cc1ccc(-c2ccc(O[C@@H]3COC[C@H]3O)cc2)cc1F)CO (racemic) [Compound 4, (rac-trans)-4-((3′-fluoro-4′-((S)-4-hydroxy-3-(2-((S)-1-hydroxyethyl)-1H-imidazol-1-yl)but-1-yn-1-yl)-[1,1′-biphenyl]-4-yl)oxy)tetrahydrofuran-3-ol] | 2 (≈ 4.42 µM) | 4 (≈ 8.84 µM) | 8 (≈ 17.7 µM) | 8 (≈ 17.7 µM) |
| Cc1cc(-c2ccc(C#C[C@@H](CO)n3ccnc3[C@H](C)O)cc2)ccc1O[C@H]1COC[C@@H]1O (single isomer, unassigned) [Compound 114] | 4 (≈ 8.92 µM) | 8 (≈ 17.8 µM) | > 32 | 16 (≈ 35.7 µM) |
| CO[C@H]1C[C@H](c2ccc(-c3ccc(C#C[C@@H](CO)n4ccnc4[C@H](C)O)cc3)cc2)C1 (racemic) [Compound 117, (S)-2-(2-((S)-1-hydroxyethyl)-1H-imidazol-1-yl)-4-(4′-((rac-trans)-3-methoxycyclobutyl)-[1,1′-biphenyl]-4-yl)but-3-yn-1-ol] | 0.12 (≈ 0.288 µM) | 0.25 (≈ 0.6 µM) | 4 (≈ 9.6 µM) | 2 (≈ 4.8 µM) |
| C[C@H](O)c1nccn1[C@@H](C#Cc1ccc(-c2ccc(N3CCC3=O)cc2)cc1)CO (single isomer, unassigned) [Compound 109] | 0.62 (≈ 1.54 µM) | 1.5 (≈ 3.74 µM) | > 32 | 2 (≈ 4.98 µM) |
| Cc1cc(-c2ccc(C#C[C@@H](CO)n3ccnc3[C@H](C)O)cc2)ccc1O[C@@H]1COC[C@H]1O (single isomer, unassigned) [Compound 113] | 4 (≈ 8.92 µM) | 8 (≈ 17.8 µM) | > 32 | 32 (≈ 71.3 µM) |
| C[C@H](O)c1nccn1[C@@H](C#Cc1ccc(-c2ccc(O[C@@H]3COC[C@H]3OC(F)(F)F)cc2)cc1)CO (racemic) [Compound 124, (S)-2-(2-((S)-1-hydroxyethyl)-1H-imidazol-1-yl)-4-(4′-(((rac-trans)-4-(trifluoromethoxy)-tetrahydrofuran-3-yl)oxy)-[1,1′-biphenyl]-4-yl)but-3-yn-1-ol] | 2 (≈ 3.98 µM) | 4 (≈ 7.96 µM) | > 32 | 8 (≈ 15.9 µM) |
| C[C@H](O)c1nccn1[C@@H](C#Cc1ccc(-c2ccc3c(c2)CCN3)cc1)CO [Compound 85, (S)-2-(2-((S)-1-hydroxyethyl)-1H-imidazol-1-yl)-4-(4-(indolin-5-yl)phenyl)but-3-yn-1-ol] | 1 (≈ 2.68 µM) | 2 (≈ 5.36 µM) | > 32 | 16 (≈ 42.8 µM) |
| C[C@H](O)c1nccn1[C@@H](C#Cc1ccc(-c2ccc(O[C@@H]3CCOC[C@H]3O)cc2F)cc1)CO (racemic) [Compound 54, (rac-trans)-4-((2-fluoro-4′-((S)-4-hydroxy-3-(2-((S)-1-hydroxyethyl)-1H-imidazol-1-yl)but-1-yn-1-yl)-[1,1′-biphenyl]-4-yl)oxy)tetrahydro-2H-pyran-3-ol] | 1 (≈ 2.14 µM) | 2 (≈ 4.29 µM) | 8 (≈ 17.1 µM) | 4 (≈ 8.57 µM) |
| C[C@H](O)c1nccn1[C@@H](C#Cc1ccc(-c2ccc(O[C@H]3C[C@H](NS(C)(=O)=O)C3)cc2)cc1)CO (racemic) [Compound 120, N-((rac-trans)-3-((4′-((S)-4-hydroxy-3-(2-((S)-1-hydroxyethyl)-1H-imidazol-1-yl)but-1-yn-1-yl)-[1,1′-biphenyl]-4-yl)oxy)cyclobutyl)methane-sulfonamide] | 1 (≈ 2.02 µM) | 2 (≈ 4.04 µM) | 4 (≈ 8.07 µM) | 2 (≈ 4.04 µM) |
| C[C@H](O)c1nccn1[C@@H](C#Cc1ccc(-c2ccc(C3CCO3)cc2)cc1)CO (mixture of isomers) [Compound 106, (2S)-2-(2-((S)-1-hydroxyethyl)-1H-imidazol-1-yl)-4-(4′-(oxetan-2-yl)-[1,1′-biphenyl]-4-yl)but-3-yn-1-ol] | 0.25 (≈ 0.644 µM) | 0.5 (≈ 1.29 µM) | 4 (≈ 10.3 µM) | 2 (≈ 5.15 µM) |
